Reference: patent US20200023003A1 (FENNEC PHARMACEUTICALS INC., priority 2018, published 2020)
Several values for one entry are separate records, joined by “and”; a condition that tells them apart may be missing. Identical values can stand only once. Like-named read-outs stand apart in the source and are kept apart here.

Assays:
[1] = Dynamic vapor sorption (DVS) isotherm; details: for DVS weight loss upon desorption: hysteresis observed
[2] = Description: It is a white to off-white crystalline solid, that is soluble in water, but insoluble in alcohol. The aqueous solution is practically neutral with a pH ranging from 6.5 to 9.0. The molecular formula is Na2S2O3. It has a molecular weight of 158.11 g/mol. The structural formula is: […]
[3] = for Cisplatin Concentration: 24° C.
Procedure: The method uses a Waters Acquity H-Class HPLC system with an Imtakt Scherzo SW-C18 mixed mode column. The HPLC method conditions are outlined in Table 7. […] This range covers greater than two orders of magnitude at dose-relevant concentrations.
Each sample was transferred to an HPLC vial and placed in an autosampler chamber held at 24° C. Samples were injected onto the HPLC system approximately every 30 minutes to obtain 4 time-points for each sample. A gradient was run and the retention time and peak area were obtained.

[4] = tested on: pediatric patients being treated with platinum based chemotherapeutics
Description: Reference is made to International Patent Application Publication No. WO 2019/108592, which is a continuation of U.S. patent application Ser. No. 15/826,243, filed on Nov. 29, 2017, both of which are incorporated by reference herein in their entirety.

[5] = tested on: pediatric patients being treated with a platinum based chemotherapeutic
Description: These adverse events comprise grade 3 or grade 4 neutropenia, reduced glomerular filtration rates, increased serum creatinine, infection, hypomagnesemia, hypernatremia, vomiting, or nausea.

[6] = animals
[7] = cited from earlier work
[8] = tested on: small cell lung cancer cell cultures; details: cited from earlier work
[9] = thiosulfate:cisplatin 5:1 (n = 2)
[10] = thiosulfate:cisplatin 6:1 (n = 2)
[11] = thiosulfate:cisplatin 10:1 (n = 2)

In the case of `O.O.O.O.O.O=S([O-])([O-])=S.[Na+].[Na+]` [sodium thiosulfate pentahydrate], the “DVS weight loss upon desorption” value [1] is reported as 51%, the “DVS weight loss upon drying” value ([1]; drying) is reported as 27% and the “DVS weight gain upon sorption” value [1] is reported as 81%.

For `O=S([O-])([O-])=S.[Na+].[Na+]` [anhydrous sodium thiosulfate, Sodium thiosulfate anhydrous], the solubility in alcohol ([2]; alcohol) was “insoluble”, the solubility in water ([2]; water) was “soluble” and the “DVS weight change upon equilibration to 0% relative humidity” value ([1]; 0% relative humidity) was “minimal weight change”. The “DVS weight loss upon desorption” value [1] was 51% and the “DVS weight gain upon sorption” value [1] was 165%.

With Sodium thiosulfate [STS] the “Half-life (time to reach 333/2 μM cisplatin)” value [3, 9] was 3.3 h, the “Slope (linear regression of cisplatin conc. vs. time)” value [3, 9] was −0.80 Cisplatin Area/min and the “Cisplatin Concentration” value ([3]; thiosulfate:cisplatin 5:1, 4 min) was 323.7 µM. For the same molecule, the “Cisplatin Concentration” value ([3]; thiosulfate:cisplatin 5:1, 37 min) was 294.2 µM and 294.0 µM, the “Cisplatin Concentration” value ([3]; thiosulfate:cisplatin 5:1, 70 min) was 266.8 µM and 268.0 µM and the “Cisplatin Concentration” value ([3]; thiosulfate:cisplatin 5:1, 103 min) was 243.7 µM and 245.3 µM. For the same molecule, the “Half-life (time to reach 333/2 μM cisplatin)” value [3, 10] was 3.07 h, the “Slope (linear regression of cisplatin conc. vs. time)” value [3, 10] was −0.87 Cisplatin Area/min and the “Cisplatin Concentration” value ([3]; thiosulfate:cisplatin 6:1, 5 min) was 325.4 µM and 324.5 µM. For the same molecule, the “Cisplatin Concentration” value ([3]; thiosulfate:cisplatin 6:1, 38 min) was 286.4 µM and 293.2 µM, the “Cisplatin Concentration” value ([3]; thiosulfate:cisplatin 6:1, 71 min) was 259.8 µM and 266.2 µM and the “Cisplatin Concentration” value ([3]; thiosulfate:cisplatin 6:1, 104 min) was 235.6 µM and 240.5 µM. For the same molecule, the “Half-life (time to reach 333/2 μM cisplatin)” value [3, 11] was 2.27 h, the “Slope (linear regression of cisplatin conc. vs. time)” value [3, 11] was −1.13 Cisplatin Area/min and the “Cisplatin Concentration” value ([3]; thiosulfate:cisplatin 10:1, 4 min) was 319.5 µM. The “Cisplatin Concentration” value ([3]; thiosulfate:cisplatin 10:1, 5 min) was 320.3 µM, the “Cisplatin Concentration” value ([3]; thiosulfate:cisplatin 10:1, 37 min) was 269.4 µM and the “Cisplatin Concentration” value ([3]; thiosulfate:cisplatin 10:1, 38 min) was 278.5 µM. The “Cisplatin Concentration” value ([3]; thiosulfate:cisplatin 10:1, 70 min) was 235.2 µM, the “Cisplatin Concentration” value ([3]; thiosulfate:cisplatin 10:1, 71 min) was 239.6 µM and the “Cisplatin Concentration” value ([3]; thiosulfate:cisplatin 10:1, 103 min) was 205.6 µM. The “Cisplatin Concentration” value ([3]; thiosulfate:cisplatin 10:1, 104 min) was 209.3 µM, the “ototoxicity in pediatric patients” value ([4]; STS after a platinum based chemotherapeutic (e.g., cisplatin)) was “significantly reduced ototoxicity” and the hearing protection ([4]; dose equivalent to 5.1 g/m^2 sodium thiosulfate for injection, preliminary clinical studies) was “did not show hearing protection”. The prevention of ototoxicity ([4]; doses equivalent to 6.4 to 12.8 g/m^2 sodium thiosulfate for injection) was “prevented ototoxicity”, the survival ([4]; treatment 6 hours after completion of each CIS infusion) was “did not affect survival” and the serum sodium levels ([5]; doses of STS equivalent to 12.8 g/m^2 sodium thiosulfate for injection) was “small, transient increase”. The “renal or other toxicities” value ([5]; pediatric patients treated with a platinum based chemotherapeutic) was “not exacerbate renal or other toxicities”, the “distribution to the cochlea” value [6] was “distribute to the cochlea” and the “biological half-life, range” value ([7]; dependent on dose) was 16.5-182 minutes. The biological half-life ([7]; following IV administration) was 0.65 hours, the “excreted in the urine unmodified” value ([7]; following IV administration) was “Up to 95%” and the “effect of STS on cytotoxicity of etoposide” value ([8]; immediate or delayed addition of STS, incubation for 72 hours) was “no reduction of cytotoxicity”. For the same molecule, the “effect of STS on anti-tumor activity of doxorubicin, carmustine (BCNU), paclitaxel, or methotrexate” value ([8]; similar studies) was “no reduction of anti-tumor activity”.
